Reference: patent US12691070B2, “Cationic lipids and preparation method thereof” (RiboX Therapeutics HK Limited, priority 2023, dated 2026)

Experiments:
[1] = system: Aspartate Aminotransferase (AST); test: Liver enzyme elevation in serum, AST; type: in vivo; settings: cirRNA (SEQ ID NO: 1) LNPs, BALB/C mice, intravenous 0.5 MPK
Method: (§1) 6-8 week old, female BALB/C mice were injected with 0.5 mg*kg-1 of RNA LNPs by intravenous injection. At 2 and 24 hours post injection, animals were bled and sera concentrations of Alanine Aminotransferase (ALT) and Aspartate Aminotransferase (AST) were determined by a blood chemistry analyzer.

[2] = system: Alanine Aminotransferase (ALT); test: Liver enzyme elevation in serum, ALT; type: in vivo; settings: cirRNA (SEQ ID NO: 1) LNPs, BALB/C mice, intravenous 0.5 MPK
Method: as §1

[3] = LNP size and polydispersity index (PDI) by dynamic light scattering; type: physicochemical; settings: for Size: in nm (unit assumed)
Summary of the method: (§2)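 LNPs of ionizable lipid/DSPC/cholesterol/DMG-PEG 2000 (50:10:38.5:1.5) made by microfluidic mixing of luciferase circRNA or mRNA in pH 4.5 acetate with lipids in ethanol (3:1, 12 ml/min), ionizable lipid:nucleotide 15 or 6, then dialyzed against PBS. Size, PDI (DLS) and zeta potential on Zetasizer; encapsulation by Ribogreen ± Triton X-100.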

[4] = system: BALB/C mice; test: Local tolerance determination by footpad injection; type: in vivo; settings: cirRNA (SEQ ID NO: 1) LNP, 0.175 mg*kg-1 subcutaneous into the footpad, 24 hours post minus prior
Method: 6-8 week old, female BALB/C mice were injected with 0.175 mg*kg-1 RNA LNPs by subcutaneous injection into the footpad. Prior to, and 24 hours post injections, injected footpad thickness was determined by a caliper.

[5] = system: BALB/C mice; test: In vivo expression, whole-body luminescence (IVIS)
Method: 6-8 week old, female BALB/C mice were injected with 0.05 mg*kg-1 of RNA-LNPs encoding for firefly-luciferase by intravenous injection. At 6 hours post injection, animals were intraperitoneally injected with 15 mg/ml of Luciferin substrate and whole-body luminescence was determined by a bioluminescent in vivo imaging system (IVIS).

[6] = RNA encapsulation efficacy by Quant-IT Ribogreen kit; type: physicochemical; settings: for Encapsulation Efficiency %: LNP with cirRNA (SEQ ID NO: 1); for Encapsulation Efficiency: LNP with mRNA (SEQ ID NO: 2)
Summary of the method: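 Dynamic light scattering and zeta potential measurements were run on PBS-dialyzed LNPs, which had been formed by microfluidic mixing at 12 ml/min with final lipid at 1.5 mM to 6 mM. RNA content and percent encapsulation were determined by Ribogreen with and without Triton X-100.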

[7] = system: RAW 264.7 cells; test: In vitro expression of firefly-luciferase, RAW 264.7; type: cell-based
Summary of the method: (§3)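 First, cells were dosed with RNA lipid nanoparticles encoding firefly luciferase (100 ng/mL). Second, at 72 h they were washed and lysed. Third, lysate luciferase activity was read with a luminometer.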

[8] = system: RAW 264.7 cells; test: In vitro toxicity (CellTiter-Glo cell viability), RAW 264.7; type: cell-based;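 note: percent of untreated cells luminescence signal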
Summary of the method: (§4)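 First, cells receive RNA-LNPs at 1 μg/mL by transfection. After 72 hours, CellTiter-Glo reagent is added per kit protocol. Luminescence is then read and converted to cell viability.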

[9] = system: Hep G2 cells; test: In vitro expression of firefly-luciferase, Hep G2; type: cell-based
Summary of the method: as §3

[10] = LNP zeta potential (Zetasizer); type: physicochemical
Summary of the method: as §2

[11] = system: MCP-I; test: MCP-I cytokine elevation in serum; type: in vivo; settings: cirRNA (SEQ ID NO: 1) LNPs, mice
Method: 6-8 week old, female BALB/C mice were injected with 0.5 mg*kg-1 of RNA LNPs by intravenous injection. At 2 and 24 hours post injection, animals were bled and sera concentrations of MCP-I were determined by an immunoassay (Luminex).

[12] = system: Hep G2 cells; test: In vitro toxicity (CellTiter-Glo cell viability), Hep G2; type: cell-based;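 note: percent of untreated cells luminescence signal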
Summary of the method: as §4

[13] = cirRNA (SEQ ID NO: 1) LNPs, BALB/C mice
[14] = mRNA (SEQ ID NO: 2) LNP, 0.05 mg*kg-1 intravenous, 6 hours post injection
[15] = cirRNA (SEQ ID NO: 1) LNPs, firefly-luciferase luminescence, RAW 264.7 cells
[16] = mRNA (SEQ ID NO: 2) LNP, 100 ng/mL, 72 hours post transfection, luciferase activity
[17] = cirRNA (SEQ ID NO: 1) LNPs, RAW 264.7 cells
[18] = mRNA (SEQ ID NO: 2) LNP, 1 μg/mL, 72 hours post transfection
[19] = cirRNA (SEQ ID NO: 1) LNPs, firefly-luciferase luminescence, Hep G2 cells
[20] = cirRNA (SEQ ID NO: 1) LNPs, Hep G2 cells

SMILES | AST in Sera (IU/L) 2 hours After 0.5 MPK Injection [1] [IU/L] | AST in Sera (IU/L) 24 hours After 0.5 MPK Injection [1] [IU/L] | ALT in Sera (IU/L) 2 hours After 0.5 MPK Injection [2] [IU/L] | ALT in Sera (IU/L) 24 hours After 0.5 MPK Injection [2] [IU/L] | PDI ([3]; LNP with cirRNA (SEQ ID NO: 1)) | Size ([3]; LNP with cirRNA (SEQ ID NO: 1)) | PDI ([3]; LNP with mRNA (SEQ ID NO: 2)) | Size ([3]; LNP with mRNA (SEQ ID NO: 2)) | Footpad Thickness (24 h−0 h, mm) [4] [mm] | In vivo Expression (Whole Body) [5, 13] | In vivo Expression (Whole Body) [5, 14] | Encapsulation Efficiency % [6] [%] | Encapsulation Efficiency [6] [%] | In vitro Expression RAW [7, 15] | In vitro Expression RAW [7, 16] | In vitro Viability RAW [8, 17] [%] | In vitro Viability RAW [8, 18] [%] | In vitro Expression HepG2 [9, 19] | In vitro Expression HepG2 [9, 16] | Zeta (mV) ([10]; LNP with cirRNA (SEQ ID NO: 1)) | also measured
CCCCCCCCCC(=O)OCCCCCCCN(CCCCCCCCOC(=O)C(CCCCCC)CCCCCCCC)CCOC(=O)NCCN(C)C (stereo not drawn) [Lipid 197] | 215.67 | 237.67 | 106.67 | 171.00 | 0.14 | 82.64 | 0.07142 | 113.7 | 0.08 | 3.04E+07 | 4.89E+08 | 96 | 79.87 | 1.87E+04 | 1.19E+07 | 0 | 0 | 6.41E+05 | 2.51E+07 | 5.5 | Zeta (mV) ([10]; LNP with mRNA (SEQ ID NO: 2)): 13.59 mV; MCP-I in Sera 2 hours After 0.5 MPK Injection [11]: 1958.67 pg/mL; MCP-I in Sera 24 hours After 0.5 MPK Injection [11]: 122.47 pg/mL; In vitro Viability HepG2 [12, 20]: 88%; In vitro Viability HepG2 [12, 18]: 116%
CCCCC/C=C\CCOC(=O)CCCCCN(CCCCCC(=O)OCC(CCCCCCCC)CCCCCCCCCC)CCOC(=O)NCCN1CCCCC1 (stereo not drawn) [Lipid 245] | 387.00 | 187.67 | 136.50 | 107.33 | 0.12 | 99.5 | 0.1109 | 108.8 | 0.68 | 2.99E+08 | 1.18E+08 | 86 | 85.53 | 2.68E+05 | 3.81E+06 | 94 | 89 | 7.24E+05 | 4.35E+06 | −5.02 | Zeta (mV) ([10]; LNP with mRNA (SEQ ID NO: 2)): 2.004 mV; MCP-I in Sera 2 hours After 0.5 MPK Injection [11]: 2543.33 pg/mL; MCP-I in Sera 24 hours After 0.5 MPK Injection [11]: 342.29 pg/mL; In vitro Viability HepG2 [12, 20]: 88%; In vitro Viability HepG2 [12, 18]: 118%
CCCCC/C=C\C/C=C\CCCCCCCCN(CCCCCCCC(=O)OC(CCCCCCCC)CCCCCCCC)CCCOC(=O)NCCN(C)C [Lipid 270] | 477.67 | 220.00 | 253.00 | 79.00 | 0.258 | 66.18 | 0.1592 | 101.7 | 0.65 | 9.90E+07 | 3.45E+08 | 95 | 94.52 | 9.33E+06 | 3.27E+06 | 120 | 96 | 9.88E+06 | 2.31E+07 | 3.201 | Zeta (mV) ([10]; LNP with mRNA (SEQ ID NO: 2)): 6.102 mV; MCP-I in Sera 2 hours After 0.5 MPK Injection [11]: 4192.67 pg/mL; MCP-I in Sera 24 hours After 0.5 MPK Injection [11]: 564.30 pg/mL; In vitro Viability HepG2 [12, 20]: 95%; In vitro Viability HepG2 [12, 18]: 116%
CCCCC/C=C\C/C=C\CCCCCCCCN(CCCCCCCC(=O)OC(CCCCCCCC)CCCCCCCC)CCCOC(=O)NCc1ncc[nH]1 [Lipid 271] | 200.67 | 231.33 | 128.33 | 114.67 | 0.2068 | 98.73 | 0.1219 | 97.34 | 0.40 | 8.99E+07 | 8.51E+08 | 93 | 94.51 | 1.59E+06 | 6.06E+06 | 121 | 85 | 5.51E+06 | 3.69E+06 | 0.345 | Zeta (mV) ([10]; LNP with mRNA (SEQ ID NO: 2)): 0.8825 mV; MCP-I in Sera 2 hours After 0.5 MPK Injection [11]: 1986.67 pg/mL; MCP-I in Sera 24 hours After 0.5 MPK Injection [11]: 522.62 pg/mL; In vitro Viability HepG2 [12, 20]: 91%; In vitro Viability HepG2 [12, 18]: 117%
CCCCC/C=C\C/C=C\CCCCCCCCN(CCCCCCCC(=O)OC(CCCCCCCC)CCCCCCCC)CCCOC(=O)NCCCn1ccnc1 [Lipid 276] | 247.33 | 89.67 | 247.67 | 52.00 | 0.1464 | 64.42 | 0.07602 | 88.07 | 0.51 | 1.88E+08 | 1.26E+07 | 96 | 94.50 | 1.07E+06 | 8.16E+05 | 117 | 83 | 9.80E+05 | 3.01E+05 | −0.02248 | Zeta (mV) ([10]; LNP with mRNA (SEQ ID NO: 2)): 0.8258 mV; MCP-I in Sera 2 hours After 0.5 MPK Injection [11]: 1659.21 pg/mL; MCP-I in Sera 24 hours After 0.5 MPK Injection [11]: 120.48 pg/mL; In vitro Viability HepG2 [12, 20]: 95%; In vitro Viability HepG2 [12, 18]: 115%
CCCCC/C=C\C/C=C\CCCCCCCCN(CCCCCCCC(=O)OC(CCCCCCCC)CCCCCCCC)CCCOC(=O)NCCN1CCCCC1 [Lipid 278] | 275.33 | 322.67 | 177.33 | 102.50 | 0.1471 | 91.92 | 0.1831 | 119 | 0.63 | 1.19E+08 | 2.18E+08 | 96 | 86.19 | 8.67E+06 | 6.01E+06 | 132 | 83 | 2.22E+07 | 3.75E+07 | 0.06032 | Zeta (mV) ([10]; LNP with mRNA (SEQ ID NO: 2)): 0.3567 mV; MCP-I in Sera 2 hours After 0.5 MPK Injection [11]: 1815.67 pg/mL; MCP-I in Sera 24 hours After 0.5 MPK Injection [11]: 1070.74 pg/mL; In vitro Viability HepG2 [12, 20]: 91%; In vitro Viability HepG2 [12, 18]: 100%
